Source: patent US10005776B2, “Compounds as NIK inhibitors” (Janssen Pharmaceutica NV, priority 2014, dated 2018)

Key:
[1] = molecular target: Recombinant Human NF-kappaB-Inducing Kinase (NIK/MAP3K14) (Homo sapiens, UniProt Q99558); test: Inhibition of auto-phosphorylation of recombinant human NIK/MAP3K14 (AlphaScreen); format: biochemical; conditions: 25 microM ATP, 0.2 nM GST-tagged NIK/MAP3K14, 1 h at 25° C.; averaged over all measurements on all batches; read-out: Alpha-Screen IC50
Experimental: Inhibition of Auto-Phosphorylation of Recombinant Human NF-kappaB-Inducing Kinase (NIK/MAP3K14) Activity (AlphaScreen®)
NIK/MAP3K14 auto-phosphorylation activity was measured using the AlphaScreen® (αscreen) format (Perkin Elmer). All compounds tested were dissolved in dimethyl sulfoxide (DMSO) and further dilutions were made in assay buffer. Final DMSO concentration was 1% (v/v) in assays. Assay buffer was 50 mM Tris pH 7.5 containing 1 mM EGTA (ethylene glycol tetraacetic acid), 1 mM DTT (dithiothreitol), 0.1 mM Na3VO4, 5 mM MgCl2, 0.01% Tween® 20. Assays were carried out in 384 well Alphaplates (Perkin Elmer). Incubations consisted of compound, 25 microM Adenosine-5′-triphosphate (ATP), and 0.2 nM NIK/MAP3K14. Incubations were initiated by addition of GST-tagged NIK/MAP3K14 enzyme, carried out for 1 h at 25° C. and terminated by addition of stop buffer containing anti-phospho-IKK Ser176/180 antibody. Protein A Acceptor and Glutathione-Donor beads were added before reading using an EnVision® Multilabel Plate Reader (Perkin Elmer). Signal obtained in the wells containing blank samples was subtracted from all other wells and IC50's were determined by fitting a sigmoidal curve to % inhibition of control versus Log10 compound concentration.

LP-1 cells = test: Antiproliferative activity on LP-1 cells (CellTiter-Glo); format: cell-based, human; conditions: 72 hr treatment, averaged values
Experimental: (§1) Determination of Antiproliferative Activity on LP-1, L-363 and JJN-3 Cells
(§2) All compounds tested were dissolved in DMSO and further dilutions were made in culture medium. Final DMSO concentration was 0.3% (v/v) in cell proliferation assays. Viability was assessed using CellTiter-Glo cell viability assay kit (Promega). The human LP-1, L-363 and JJN-3 cells (DSMZ) were cultured in RPMI 1640 medium supplemented with 2 mM L-glutamine, and 10% fetal calf serum (PAA). Cells were routinely kept as suspension cells at 37° C. in a humidified 5% CO2 atmosphere. Cells were passaged at a seeding density of 0.2×10^6/ml twice a week. Cells were seeded in black tissue culture treated 96-well plates (Perkin Elmer). Densities used for plating ranged from 2,000 to 6,000 cells per well in a total volume of 75 μl medium. After twenty four hours, drugs and/or solvents were added (25 μl) to a final volume of 100 μl. Following 72 hr of treatment plates were removed from the incubator and allowed to equilibrate to room temperature for approx 10 min. 100 μl CellTiter-Glo reagent was added to each well that was then covered (Perkin Elmer Topseal) and shaken on plate shaker for 10 min. Luminescence was measured on a HTS Topcount (Perkin Elmer). Within an experiment, the results for each treatment were the mean of 2 replicate wells. For initial screening purposes, compounds were tested using a 9 point dilution curve (serial 1:3 dilutions). For each experiment, controls (containing no drug) and a blank incubation (containing cells read at the time of compound addition) were run in parallel. The blank value was subtracted from all control and sample values. For each sample, the mean value for cell growth (in relative light units) was expressed as a percentage of the mean value for cell growth of the control.

JJN-3 cells = test: Antiproliferative activity on JJN-3 cells (CellTiter-Glo); format: cell-based, human; conditions: 72 hr treatment, averaged values
Experimental: as §1, §2

L-363 cells = test: Antiproliferative activity on L-363 cells (CellTiter-Glo); format: cell-based, human; conditions: 72 hr treatment, averaged values
Experimental: as §1, §2

Sequence of Recombinant Human NF-kappaB-Inducing Kinase (NIK/MAP3K14) (Q99558 whole entry): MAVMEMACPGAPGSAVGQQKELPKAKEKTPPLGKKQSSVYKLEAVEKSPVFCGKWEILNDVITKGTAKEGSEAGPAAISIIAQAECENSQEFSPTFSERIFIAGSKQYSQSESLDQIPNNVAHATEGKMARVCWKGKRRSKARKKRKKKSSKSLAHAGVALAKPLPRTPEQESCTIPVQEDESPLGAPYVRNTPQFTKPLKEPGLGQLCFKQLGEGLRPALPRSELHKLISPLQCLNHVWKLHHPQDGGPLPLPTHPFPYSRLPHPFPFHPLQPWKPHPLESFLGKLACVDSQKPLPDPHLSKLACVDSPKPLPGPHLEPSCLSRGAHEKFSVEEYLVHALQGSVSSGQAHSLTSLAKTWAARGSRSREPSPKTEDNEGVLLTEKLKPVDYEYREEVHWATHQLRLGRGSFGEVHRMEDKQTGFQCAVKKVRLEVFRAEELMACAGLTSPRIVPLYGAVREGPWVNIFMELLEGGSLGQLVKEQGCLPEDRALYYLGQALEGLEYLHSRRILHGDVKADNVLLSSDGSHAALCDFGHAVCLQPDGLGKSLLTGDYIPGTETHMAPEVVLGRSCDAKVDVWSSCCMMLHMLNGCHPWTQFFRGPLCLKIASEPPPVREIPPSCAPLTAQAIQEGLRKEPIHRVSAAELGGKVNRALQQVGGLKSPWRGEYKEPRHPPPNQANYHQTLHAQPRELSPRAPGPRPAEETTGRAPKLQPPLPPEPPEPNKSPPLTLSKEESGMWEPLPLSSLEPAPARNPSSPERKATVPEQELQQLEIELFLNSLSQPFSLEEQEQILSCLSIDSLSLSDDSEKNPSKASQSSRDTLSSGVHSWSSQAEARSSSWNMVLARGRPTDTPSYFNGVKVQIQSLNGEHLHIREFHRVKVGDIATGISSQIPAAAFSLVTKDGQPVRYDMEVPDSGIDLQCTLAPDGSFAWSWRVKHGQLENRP

Structure (SMILES) | IC50 [1] [nM] | EC50 (LP-1 cells) [nM] | EC50 (JJN-3 cells) [nM] | EC50 (L-363 cells) [nM] | EC50 (LP-1 cells; Homo sapiens, LP-1, 72 h) [nM] | EC50 (JJN-3 cells; Homo sapiens, JJN-3, 72 h) [nM] | EC50 (L-363 cells; Homo sapiens, L-363, 72 h) [nM]
Cc1nc(C(C)(O)C#Cc2cc3c(-c4nc(N)ncc4F)cn(C4CN(C5CC5)C4)c3cn2)no1 (stereo not drawn) [Compound 15] | 144 |  |  |  | 14400 | 3220 | 2720
CC(O)(C#Cc1cc2c(-c3nc(N)ncc3F)cn(C3CN(C4CC4)C3)c2cn1)c1ncccn1 (stereo not drawn) [Compound 17] | 189 |  |  |  | 29000 | 6720 | 8260
CC(O)(C#Cc1cc2c(-c3nc(N)ncc3F)c[nH]c2c(C2CC2)n1)C1CC1 (stereo not drawn) [Compound 1] | 95 |  |  |  | 19 | 8 | 4
[2H]C([2H])([2H])C(O)(C#Cc1cc2c(-c3nc(N)ncc3F)cn(C3CCCN(CCC)C3)c2cn1)C([2H])([2H])[2H] (single isomer, unassigned) [Compound 24] | 90 | 219 | 135 | 118 |  |  | 
CC(C)N1CCC(n2cc(-c3nc(N)ncc3F)c3cc(C#CC(C)(O)C4CC4)ncc32)C1 (stereo not drawn) [Compound 3] | 155 |  |  |  | 147 | 133 | 56
Nc1ncc(F)c(-c2cn(C3CN(C4CC4)C3)c3cnc(C#CC4(O)CCCC4)cc23)n1 [Compound 21] | 95 |  |  |  | 1000 | 464 | 408
CC(O)C#Cc1cc2c(-c3nc(N)ncc3F)cn(C3CN(C4CC4)C3)c2cn1 (stereo not drawn) [Compound 9] | 69 |  |  |  | 131 | 55 | 37
CCN1CCC(n2cc(-c3nc(N)ncc3F)c3cc(C#CC(C)(O)C4CC4)nc(C)c32)C1 (stereo not drawn) [Compound 10] | 58 |  |  |  | 20 | 22 | 10
CC(C)n1cc(-c2nc(N)ncc2OCCN2CCOCC2)c2cc(C#CC(C)(O)C3CC3)ncc21 (stereo not drawn) [Compound 4] | 150 |  |  |  | 1190 | 208 | 152
Cc1cc(C(C)(O)C#Cc2cc3c(-c4nc(N)ncc4F)c[nH]c3c(C3CC3)n2)no1 (stereo not drawn) [Compound 23] | 67 |  |  |  | 1280 | 442 | 368
CC(O)(C#Cc1cc2c(-c3nc(N)ncc3F)cn(C3CN(C4CC4)C3)c2cn1)c1nccs1 (single isomer, unassigned) [Compound 29] | 735 | 3530 | 1930 | 3080 |  |  | 
CC(O)(C#Cc1cc2c(-c3nc(N)ncc3F)cn(C3CN(CCC(F)(F)F)C3)c2cn1)C1CC1 (stereo not drawn) [Compound 5] | 74 |  |  |  | 377 | 227 | 175
Cc1cc(C(C)(O)C#Cc2cc3c(-c4nc(N)ncc4F)c[nH]c3cn2)no1 (single isomer, unassigned) [Compound 32] | 379 | 19600 | 4340 | 5500 |  |  | 
[2H]C([2H])([2H])C(O)(C#Cc1cc2c(-c3nc(N)ncc3F)cn(C3CCCN(CCC)C3)c2cn1)C([2H])([2H])[2H] (single isomer, unassigned) [Compound 25] | 82 | 163 | 102 | 66 |  |  | 

The next compounds have a lower IC50 [1] than those just listed; values first:

IC50 [1] [nM] | Structure (SMILES) | EC50 (LP-1 cells) [nM] | EC50 (JJN-3 cells) [nM] | EC50 (L-363 cells) [nM] | EC50 (LP-1 cells; Homo sapiens, LP-1, 72 h) [nM] | EC50 (JJN-3 cells; Homo sapiens, JJN-3, 72 h) [nM] | EC50 (L-363 cells; Homo sapiens, L-363, 72 h) [nM]
56 | [2H]C([2H])([2H])C(O)(C#Cc1cc2c(-c3nc(N)ncc3F)cn(C3CCCN(CCC)C3)c2cn1)C([2H])([2H])[2H] (stereo not drawn) [Compound 12] | 76 | 38 | 42 |  |  | 
34 | Cc1cc(C(C)(O)C#Cc2cc3c(-c4nc(N)ncc4F)cn(C4CN(C5CC5)C4)c3cn2)no1 (stereo not drawn) [Compound 16] |  |  |  | 1800 | 951 | 811
37 | Nc1ncc(F)c(-c2c[nH]c3c(C4CC4)nc(C#CC4(O)CCCC4)cc23)n1 [Compound 22] |  |  |  | 110 | 37 | 24
26 | COCCN1CCC(n2cc(-c3nc(N)ncc3F)c3cc(C#CC(C)(O)C4CC4)ncc32)C1 (stereo not drawn) [Compound 7] |  |  |  | 320 | 222 | 144
10 | Cc1cc(C(C)(O)C#Cc2cc3c(-c4nc(N)ncc4F)c[nH]c3cn2)no1 (stereo not drawn) [Compound 18] |  |  |  | 5030 | 1190 | 1090
2 | CC(O)(C#Cc1cc2c(-c3nc(N)ncc3F)c[nH]c2cn1)c1nccs1 (single isomer, unassigned) [Compound 31] | 5740 | 634 | 1210 |  |  | 
29 | CCCN1CCC(n2cc(-c3nc(N)ncc3F)c3cc(C#CC(C)(O)C4CC4)ncc32)C1 (stereo not drawn) [Compound 6] |  |  |  | 69 | 62 | 31
30 | COCCCN1CCC(n2cc(-c3nc(N)ncc3F)c3cc(C#CC(C)(O)C4CC4)ncc32)C1 (stereo not drawn) [Compound 8] |  |  |  | 158 | 119 | 80
20 | CC(O)(C#Cc1cc2c(-c3nc(N)ncc3F)c[nH]c2cn1)c1nccs1 (single isomer, unassigned) [Compound 30] | 11600 | 2080 | 4760 |  |  | 
3 | CC(O)(C#Cc1cc2c(-c3nc(N)ncc3F)c[nH]c2cn1)c1nccs1 (stereo not drawn) [Compound 19] |  |  |  | 7620 | 1010 | 1270
26 | CCCCN1CCC(n2cc(-c3nc(N)ncc3F)c3cc(C#CC(C)(O)C4CC4)ncc32)C1 (single isomer, unassigned) [Compound 27] | 100 | 92 | 53 |  |  | 
7 | Cc1nc(C#CC(C)(O)C2CC2)cc2c(-c3nc(N)ncc3F)c[nH]c12 (stereo not drawn) [Compound 2] |  |  |  | 39 | 7 | 5
16 | CC(O)(C#Cc1cc2c(-c3nc(N)ncc3F)cn(C3CN(C4CC4)C3)c2cn1)c1nccs1 (stereo not drawn) [Compound 14] |  |  |  | 3980 | 631 | 1220
16 | CC(O)(C#Cc1cc2c(-c3nc(N)ncc3F)cn(C3CN(C4CC4)C3)c2cn1)c1nccs1 (single isomer, unassigned) [Compound 28] |  | 408 | 402 | 4260 |  | 
29 | CC(O)(C#Cc1cc2c(-c3nc(N)ncc3F)c[nH]c2c(C2CC2)n1)C1CC1 (single isomer, unassigned) [Compound 13] |  |  |  | 15 | 7 | 4
2 | Nc1ncc(F)c(-c2c[nH]c3cnc(C#CC4(O)CCCC4)cc23)n1 [Compound 20] |  |  |  | 1120 | 152 | 126
18 | CCCCN1CCC(n2cc(-c3nc(N)ncc3F)c3cc(C#CC(C)(O)C4CC4)ncc32)C1 (single isomer, unassigned) [Compound 26] |  |  |  | 114 | 101 | 63
21 | CCCCN1CCC(n2cc(-c3nc(N)ncc3F)c3cc(C#CC(C)(O)C4CC4)ncc32)C1 (stereo not drawn) [Compound 11] |  |  |  | 52 | 62 | 40
3 | Cc1cc(C(C)(O)C#Cc2cc3c(-c4nc(N)ncc4F)c[nH]c3cn2)no1 (single isomer, unassigned) [Compound 33] | 4120 | 593 | 472 |  |  | 
